Experiments:
[1] = Cytotoxicity, alamarBlue, murine macrophages; format: cell-based; conditions: mouse, J774A.1 murine macrophage cell line, J774A.1 murine macrophages, mean ± SD
Protocol: (§1) The cytotoxicity was evaluated against murine macrophages (J774A.1) using the same method mentioned in the antiparasitic assay, based on the alamarBlue Cell Viability Reagent®. In a sterile 96-well plate, 10^4 cells per well were added, then, after the complete adhesion, serial dilutions of the 32 compounds, using a deep well plate, and a 10% of alamarBlue® were joined.

[2] = test system: epimastigotes of Trypanosoma cruzi; assay: Mitochondrial membrane potential analysis (JC-1); format: cell-based; conditions: 24 h with the IC90, JC-1, Tukey test, Figure 2
Protocol: The detection of variations in the mitochondrial membrane potential was evaluated with the JC-1 Mitochondrial Membrane Potential Assay Kit® (Cayman Chemical, Ann Arbor, MI, USA). In a 24-well plate, 500 µL of epimastigotes at 10^6 parasites per ml were added with the inhibitory concentration 90 (IC90) of the compounds. After 24 h of incubation at 26 °C, the epimastigotes were centrifuged (3000 rpm, 10 min, 4 °C), resuspended in 50µL of JC-1 buffer and added to a black 96-well plate with 5 µL of JC-1. After 30 min of incubation at 26 °C, the green and red fluorescence were measured using an EnSpire Multimode Plate Reader® (PerkinElmer). Results were expressed in percentage relative to negative control (without treatment) of the ratio 595/535 nm (J-aggregates/J-monomers).

[3] = test system: epimastigotes of Trypanosoma cruzi; assay: ATP level analysis (CellTiter-Glo); format: cell-based; conditions: 24 h with the IC90, CellTiter-Glo, Figure 3
Protocol: Variations in the level of ATP were measured with the CellTiter-Glo® Luminescent Cell Viability Assay (Promega, WI, USA). […] Then, in a white 96-well plate, the epimastigotes were resuspended in 25µL of culture media and mixed with 25 µL of the kit. After 10 min of incubation at room temperature, the luminescence was measured using an EnSpire Multimode Plate Reader® (PerkinElmer). The results were expressed in percentage of production of ATP level relative to the negative control (without any treatment).

[4] = test system: J774A.1 murine macrophage cell line; assay: Cytotoxicity, alamarBlue, murine macrophages; format: cell-based; conditions: J774A.1 murine macrophages, 24 h, mean ± SD
Protocol: as §1

[5] = test system: epimastigote stage of T. cruzi; assay: Antiparasitic activity, alamarBlue, epimastigotes; format: cell-based, Trypanosoma cruzi; conditions: for Selectivity index (SI): ratio of CC50 for J774A.1 and IC50 for epimastigotes of T. cruzi
Protocol: Epimastigotes of Trypanosoma cruzi (Y strain) were used in this study and cultured in liver infusion tryptose (LIT) medium supplemented with 10% of foetal bovine serum (FBS) at 26 °C.
In a sterile 96-well plate, a serial dilution of acrylonitriles was carried out in LIT medium supplemented with 10% FBS with a final volume of 100 µL. Parasites were added to wells to reach a concentration of 10^5 parasites per well. Finally, a 10% of alamarBlue Cell Viability Reagent® (ThermoFisher Scientific, Waltham, MA, USA) was added into each well, and the plate was incubated for 72 h at 26°C.

Row | SMILES | CC50 at 24 h [1] | Variations in the mitochondrial membrane potential relative to negative control [2] | Percentage of ATP level relative to untreated control [3] | CC50 [4] | IC50 ([5]; epimastigote stage of T. cruzi (Y strain), 72 h, alamarBlue, mean ± SD, NA: not active) | Selectivity index (SI) [5]
1 | O=C(Cn1ccnc1[N+](=O)[O-])NCc1ccccc1 [BENZ, benznidazole, reference compound] | > 1500 µM | decreasing the inter-membrane potential of the mitochondria | 18.26% | – | – | –
2 | N#CC=CC(=O)N1C(=O)OC[C@H]1c1ccccc1 [Compound Q31, (E)-(R,E)-4-Oxo-4-(2-oxo-4-phenyloxazolidin-3-yl)but-2-enenitrile] | – | – | – | 10.4 ± 1.06 µM | 20.38 ± 0.13 µM | 0.51
3 | N#CC=CC(=O)N1C(=O)OC[C@H]1c1ccccc1 [Compound Q32, (Z)-(R,Z)-4-Oxo-4-(2-oxo-4-phenyloxazolidin-3-yl)but-2-enenitrile] | – | – | – | 2.89 ± 0.74 µM | – | 0.78

Source: publication PMC8228537, “Acrylonitrile Derivatives against Trypanosoma cruzi: In Vitro Activity and Programmed Cell Death Study” (Pharmaceuticals, 2021)
